Results reported in BigSolDB 2.1.

O=C(O)/C=C/c1ccccc1Cl
solubility (mole fraction) (in 2-butanone, 272.15 K): 0.00431
solubility (mole fraction) (in 2-butanone, 278.45 K): 0.00535
solubility (mole fraction) (in 2-butanone, 283.35 K): 0.00626
solubility (mole fraction) (in 2-butanone, 288.35 K): 0.00733
solubility (mole fraction) (in 2-butanone, 292.75 K): 0.00837
solubility (mole fraction) (in 2-butanone, 297.75 K): 0.00968
solubility (mole fraction) (in 2-butanone, 302.55 K): 0.0111
solubility (mole fraction) (in 2-butanone, 307.05 K): 0.0126
solubility (mole fraction) (in 2-butanone, 312.35 K): 0.0145
solubility (mole fraction) (in 2-butanone, 317.05 K): 0.0164
solubility (mole fraction) (in 2-butanone, 321.45 K): 0.0183
solubility (mole fraction) (in 2-pentanone, 272.15 K): 0.00424
solubility (mole fraction) (in 2-pentanone, 278.45 K): 0.00526
solubility (mole fraction) (in 2-pentanone, 283.35 K): 0.00618
solubility (mole fraction) (in 2-pentanone, 288.35 K): 0.00723
solubility (mole fraction) (in 2-pentanone, 292.75 K): 0.00827
solubility (mole fraction) (in 2-pentanone, 297.75 K): 0.0096
solubility (mole fraction) (in 2-pentanone, 302.55 K): 0.011
solubility (mole fraction) (in 2-pentanone, 307.05 K): 0.0125
solubility (mole fraction) (in 2-pentanone, 312.35 K): 0.0144
solubility (mole fraction) (in 2-pentanone, 317.05 K): 0.0163
solubility (mole fraction) (in 2-pentanone, 321.45 K): 0.0182
solubility (mole fraction) (in acetone, 272.15 K): 0.00376
solubility (mole fraction) (in acetone, 278.45 K): 0.00474
solubility (mole fraction) (in acetone, 283.35 K): 0.00563
solubility (mole fraction) (in acetone, 288.35 K): 0.00668
solubility (mole fraction) (in acetone, 292.75 K): 0.00771
solubility (mole fraction) (in acetone, 297.75 K): 0.00907
solubility (mole fraction) (in acetone, 302.55 K): 0.0105
solubility (mole fraction) (in acetone, 307.05 K): 0.012
solubility (mole fraction) (in acetone, 312.35 K): 0.014
solubility (mole fraction) (in acetone, 317.05 K): 0.016
solubility (mole fraction) (in acetone, 321.45 K): 0.0181
solubility (mole fraction) (in acetonitrile, 272.15 K): 0.000253
solubility (mole fraction) (in acetonitrile, 278.45 K): 0.000362
solubility (mole fraction) (in acetonitrile, 283.35 K): 0.000474
solubility (mole fraction) (in acetonitrile, 288.35 K): 0.000617
solubility (mole fraction) (in acetonitrile, 292.75 K): 0.000773
solubility (mole fraction) (in acetonitrile, 297.75 K): 0.000994
solubility (mole fraction) (in acetonitrile, 302.55 K): 0.00125
solubility (mole fraction) (in acetonitrile, 307.05 K): 0.00154
solubility (mole fraction) (in acetonitrile, 312.35 K): 0.00195
solubility (mole fraction) (in acetonitrile, 317.05 K): 0.0024
solubility (mole fraction) (in acetonitrile, 321.45 K): 0.00289
solubility (mole fraction) (in ethanol, 272.15 K): 0.00229
solubility (mole fraction) (in ethanol, 278.45 K): 0.00295
solubility (mole fraction) (in ethanol, 283.45 K): 0.0036
solubility (mole fraction) (in ethanol, 288.35 K): 0.00431
solubility (mole fraction) (in ethanol, 292.85 K): 0.00508
solubility (mole fraction) (in ethanol, 298.15 K): 0.00614
solubility (mole fraction) (in ethanol, 302.95 K): 0.00722
solubility (mole fraction) (in ethanol, 307.35 K): 0.00833
solubility (mole fraction) (in ethanol, 312.05 K): 0.00969
solubility (mole fraction) (in ethanol, 316.55 K): 0.0112
solubility (mole fraction) (in ethanol, 321.55 K): 0.013
solubility (mole fraction) (in ethyl acetate, 272.15 K): 0.00231
solubility (mole fraction) (in ethyl acetate, 278.45 K): 0.00294
solubility (mole fraction) (in ethyl acetate, 283.35 K): 0.00351
solubility (mole fraction) (in ethyl acetate, 288.35 K): 0.00417
solubility (mole fraction) (in ethyl acetate, 292.75 K): 0.00484
solubility (mole fraction) (in ethyl acetate, 297.75 K): 0.00571
solubility (mole fraction) (in ethyl acetate, 302.55 K): 0.00665
solubility (mole fraction) (in ethyl acetate, 307.05 K): 0.00764
solubility (mole fraction) (in ethyl acetate, 312.35 K): 0.00894
solubility (mole fraction) (in ethyl acetate, 317.05 K): 0.0102
solubility (mole fraction) (in ethyl acetate, 321.45 K): 0.0116
solubility (mole fraction) (in ethyl formate, 272.15 K): 0.000925
solubility (mole fraction) (in ethyl formate, 278.45 K): 0.00124
solubility (mole fraction) (in ethyl formate, 283.35 K): 0.00155
solubility (mole fraction) (in ethyl formate, 288.35 K): 0.00193
solubility (mole fraction) (in ethyl formate, 292.75 K): 0.00232
solubility (mole fraction) (in ethyl formate, 297.75 K): 0.00285
solubility (mole fraction) (in ethyl formate, 302.55 K): 0.00345
solubility (mole fraction) (in ethyl formate, 307.05 K): 0.0041
solubility (mole fraction) (in ethyl formate, 312.35 K): 0.00497
solubility (mole fraction) (in ethyl formate, 317.05 K): 0.0059
solubility (mole fraction) (in ethyl formate, 321.45 K): 0.00688
solubility (mole fraction) (in isobutanol, 272.15 K): 0.0013
solubility (mole fraction) (in isobutanol, 278.45 K): 0.00167
solubility (mole fraction) (in isobutanol, 283.45 K): 0.00211
solubility (mole fraction) (in isobutanol, 288.35 K): 0.00266
solubility (mole fraction) (in isobutanol, 292.85 K): 0.00324
solubility (mole fraction) (in isobutanol, 298.15 K): 0.00403
solubility (mole fraction) (in isobutanol, 302.95 K): 0.00489
solubility (mole fraction) (in isobutanol, 307.35 K): 0.00591
solubility (mole fraction) (in isobutanol, 312.05 K): 0.00724
solubility (mole fraction) (in isobutanol, 316.55 K): 0.00855
solubility (mole fraction) (in isobutanol, 321.55 K): 0.0106
solubility (mole fraction) (in isopentanol, 272.15 K): 0.00208
solubility (mole fraction) (in isopentanol, 278.45 K): 0.00259
solubility (mole fraction) (in isopentanol, 283.45 K): 0.00322
solubility (mole fraction) (in isopentanol, 288.35 K): 0.00396
solubility (mole fraction) (in isopentanol, 292.85 K): 0.00475
solubility (mole fraction) (in isopentanol, 298.15 K): 0.0058
solubility (mole fraction) (in isopentanol, 302.95 K): 0.00691
solubility (mole fraction) (in isopentanol, 307.35 K): 0.00821
solubility (mole fraction) (in isopentanol, 312.05 K): 0.00988
solubility (mole fraction) (in isopentanol, 316.55 K): 0.0115
solubility (mole fraction) (in isopentanol, 321.55 K): 0.014
solubility (mole fraction) (in isopropanol, 272.15 K): 0.00181
solubility (mole fraction) (in isopropanol, 278.45 K): 0.00245
solubility (mole fraction) (in isopropanol, 283.45 K): 0.00309
solubility (mole fraction) (in isopropanol, 288.35 K): 0.00385
solubility (mole fraction) (in isopropanol, 292.85 K): 0.00468
solubility (mole fraction) (in isopropanol, 298.15 K): 0.00585
solubility (mole fraction) (in isopropanol, 302.95 K): 0.00712
solubility (mole fraction) (in isopropanol, 307.35 K): 0.00848
solubility (mole fraction) (in isopropanol, 312.05 K): 0.0101
solubility (mole fraction) (in isopropanol, 316.55 K): 0.012
solubility (mole fraction) (in isopropanol, 321.55 K): 0.0144
solubility (mole fraction) (in methanol, 272.15 K): 0.00174
solubility (mole fraction) (in methanol, 278.45 K): 0.00224
solubility (mole fraction) (in methanol, 283.45 K): 0.00273
solubility (mole fraction) (in methanol, 288.35 K): 0.00328
solubility (mole fraction) (in methanol, 292.85 K): 0.00387
solubility (mole fraction) (in methanol, 298.15 K): 0.00465
solubility (mole fraction) (in methanol, 302.95 K): 0.00549
solubility (mole fraction) (in methanol, 307.35 K): 0.0064
solubility (mole fraction) (in methanol, 312.05 K): 0.00739
solubility (mole fraction) (in methanol, 316.55 K): 0.00857
solubility (mole fraction) (in methanol, 321.55 K): 0.01
solubility (mole fraction) (in methyl acetate, 272.15 K): 0.00189
solubility (mole fraction) (in methyl acetate, 278.45 K): 0.00244
solubility (mole fraction) (in methyl acetate, 283.35 K): 0.00296
solubility (mole fraction) (in methyl acetate, 288.35 K): 0.00358
solubility (mole fraction) (in methyl acetate, 292.75 K): 0.00422
solubility (mole fraction) (in methyl acetate, 297.75 K): 0.00505
solubility (mole fraction) (in methyl acetate, 302.55 K): 0.00596
solubility (mole fraction) (in methyl acetate, 307.05 K): 0.00694
solubility (mole fraction) (in methyl acetate, 312.35 K): 0.00823
solubility (mole fraction) (in methyl acetate, 317.05 K): 0.00956
solubility (mole fraction) (in methyl acetate, 321.45 K): 0.0109
solubility (mole fraction) (in n-butanol, 272.15 K): 0.00231
solubility (mole fraction) (in n-butanol, 278.45 K): 0.00288
solubility (mole fraction) (in n-butanol, 283.45 K): 0.00356
solubility (mole fraction) (in n-butanol, 288.35 K): 0.00438
solubility (mole fraction) (in n-butanol, 292.85 K): 0.00522
solubility (mole fraction) (in n-butanol, 298.15 K): 0.00636
solubility (mole fraction) (in n-butanol, 302.95 K): 0.00757
solubility (mole fraction) (in n-butanol, 307.35 K): 0.00895
solubility (mole fraction) (in n-butanol, 312.05 K): 0.0107
solubility (mole fraction) (in n-butanol, 316.55 K): 0.0124
solubility (mole fraction) (in n-butanol, 321.55 K): 0.0151
solubility (mole fraction) (in n-pentanol, 272.15 K): 0.00268
solubility (mole fraction) (in n-pentanol, 278.45 K): 0.0033
solubility (mole fraction) (in n-pentanol, 283.45 K): 0.00404
solubility (mole fraction) (in n-pentanol, 288.35 K): 0.00491
solubility (mole fraction) (in n-pentanol, 292.85 K): 0.00583
solubility (mole fraction) (in n-pentanol, 298.15 K): 0.00704
solubility (mole fraction) (in n-pentanol, 302.95 K): 0.00832
solubility (mole fraction) (in n-pentanol, 307.35 K): 0.00977
solubility (mole fraction) (in n-pentanol, 312.05 K): 0.0116
solubility (mole fraction) (in n-pentanol, 316.55 K): 0.0134
solubility (mole fraction) (in n-pentanol, 321.55 K): 0.0162
solubility (mole fraction) (in n-propanol, 272.15 K): 0.00202
solubility (mole fraction) (in n-propanol, 278.45 K): 0.00267
solubility (mole fraction) (in n-propanol, 283.45 K): 0.00332
solubility (mole fraction) (in n-propanol, 288.35 K): 0.00408
solubility (mole fraction) (in n-propanol, 292.85 K): 0.0049
solubility (mole fraction) (in n-propanol, 298.15 K): 0.00602
solubility (mole fraction) (in n-propanol, 302.95 K): 0.00723
solubility (mole fraction) (in n-propanol, 307.35 K): 0.00848
solubility (mole fraction) (in n-propanol, 312.05 K): 0.01
solubility (mole fraction) (in n-propanol, 316.55 K): 0.0117
solubility (mole fraction) (in n-propanol, 321.55 K): 0.0139
solubility (mole fraction) (in toluene, 272.15 K): 0.000149
solubility (mole fraction) (in toluene, 278.45 K): 0.000225
solubility (mole fraction) (in toluene, 283.35 K): 0.000307
solubility (mole fraction) (in toluene, 288.35 K): 0.000415
solubility (mole fraction) (in toluene, 292.75 K): 0.000538
solubility (mole fraction) (in toluene, 297.75 K): 0.000716
solubility (mole fraction) (in toluene, 302.55 K): 0.000932
solubility (mole fraction) (in toluene, 307.05 K): 0.00119
solubility (mole fraction) (in toluene, 312.35 K): 0.00156
solubility (mole fraction) (in toluene, 317.05 K): 0.00197
solubility (mole fraction) (in toluene, 321.45 K): 0.00246
